# Test results taken from patent US4710580A, “2-[1,3,2-dioxaphospholan-2-yloxy]ethyl compounds” (American Home Products Corporation, priority 1986, dated 1987).
# How the values were obtained:
# human platelet PLA2 = biological target: T1, human platelet PLA2 (Homo sapiens, UniProt P14555); assay: in vitro inhibition of human platelet PLA2 (hydrolysis of [1-14C] oleic acid-labelled E. coli membrane phospholipids); assay type: biochemical; conditions: pH 7.4, 30 minutes incubation
# T1 construct: The PLA2 enriched supernatant fluid is removed and the amount of protein is determined by the Lowry method; from tissue; host or cells: human platelets (expired, blood bank), acid extract, 10,000 g supernatant
# T1 sequence (P14555 21-144): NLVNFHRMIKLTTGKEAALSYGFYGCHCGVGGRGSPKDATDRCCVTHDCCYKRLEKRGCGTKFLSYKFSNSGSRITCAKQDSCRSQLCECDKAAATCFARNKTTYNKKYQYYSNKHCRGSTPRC
# Description: The ability of the compounds to inhibit the activity of PLA2 enzyme is measured in the following in vitro assay.
# The assay is carried out as follows:
# E. coli, cultured to exponential growth, are sedimented for 15 minutes at 10,000 g and resuspended in sterile isotonic saline (1-3 ml). 10-25 μCi [1-^14 C] oleic acid (or arachidonic acid) is added to a sterile flask, evaporated by N2 and resolubilized with 0.3 ml 20% fatty acid-free BSA. 75-100 ml of nutrient broth and 1 ml E. coli are then added to each flask and incubated for 2-3 hours at 37° C. [1-^14 C] oleic acid labelled E. coli are then sedimented, suspended in saline and added to fresh nutrient broth and incubated for 1.5 hours at 37° C. to complete [1-^14 C] oleic acid incorporation into the phospholipids. After overnight refrigeration of cultures, E. coli are again sedimented, suspended in saline and autoclaved for 15 minutes at 120° C. E. coli cultures are washed twice with saline (first wash contains 1% BSA) and resuspended in saline. […] Cell number is determined by measuring the optical density at 550 nm ([…]=1 O.D.). The amount of radioactivity associated with cells is determined by counting a defined volume of cell suspension. […]
# Expired human platelets from the blood bank are centrifuged for 15 minutes at 200 g to obtain a platelet rich plasma fraction and to remove the red blood cells. […] The PLA2 enriched supernatant fluid is removed and the amount of protein is determined by the Lowry method. […]
# The assay measures the hydrolysis of E. coli membrane phospholipids and the release of free [1-^14 C] oleic acid from the C-2 position of phospholipids by human platelet PLA2. […] Free fatty acid ([1-^14 C] oleic acid labeled phospholipids are visualized with exposure to iodine vapors. Radioactive areas that co-chromatographed with authentic oleic acid and phospholipid standards are cut out and placed in a scintillation vial. One ml CH3 OH and 10 ml Hydrofluor are added to each cut strip and radioactivity is determined by liquid scintillation counting.
# The percent hydrolysis is calculated by the following equation: [formula]
# [1] = system: lipoxygenase and/or cyclooxygenase pathways of arachidonic acid; assay: arachidonic acid (AA)-induced murine ear edema test; assay type: in vivo, Swiss Webster female mice; conditions: 1 mg/ear, drug 30 minutes prior to AA (2 mg/ear), ear thickness measured after 1 hour
# Text: (§1) The ability of the compounds of the invention to inhibit the lipoxygenase and/or cyclooxygenase pathways of arachidonic acid is examined in the in vivo arachidonic acid (AA)-/12-O-tetradecanoylphorbol acetate (TPA)-induced murine ear edema test.
# (§2) According to this test, Swiss Webster female mice (Buckshire), approximately 8 weeks old, are placed into plastic boxes in groups of six. Eight groups of mice receive AA topically on the right ear, and another 8 groups receive TPA topically on the right ear. AA and TPA are dissolved in acetone at concentrations of 100 mg/ml ad 100 μg/ml respectively. The phlogistics are applied to the right ear by the means of an automatic pipet. Volumes of 10 μl are applied to the inner and outer surfaces of the ear. Each mouse receives either 2 mg/ear AA or […] TPA. The left ear (control) receives acetone delivered in the same manner. […]
# (§3) Measurements are taken with Oditest calipers, 0-10 mm with 0.01 graduations. The right and left ears are measured after 1 hour AA-induced inflammation and 4 hours after TPA-induced inflammation.
# (§4) The difference between right and left ear thickness is calculated and the significance is determined by a one way analysis of variance with Dunnett's comparisons to control (P=0.05). Drug effects are expressed as a percent change from control values: [formula]
# [2] = system: lipoxygenase and/or cyclooxygenase pathways of arachidonic acid; assay: 12-O-tetradecanoylphorbol acetate (TPA)-induced murine ear edema test; assay type: in vivo, Swiss Webster female mice; conditions: 1 mg/ear, drug 30 minutes after TPA (4 μg/ear), ear thickness measured after 4 hours
# Text: as §1, §2, §3, §4
inhibition at 100 µM (human platelet PLA2) [%],Structure (SMILES),"% Change from Control, TOPICAL, AA [1] [%]","% Change from Control, TOPICAL, TPA [2] [%]"
92,"CCCCCCCCCCCCNC(=O)OCCOP1(=O)OCCO1 [Example 2, Dodecylcarbamic acid 2-(1,3,2-dioxaphospholan-2-yloxy)ethyl ester P-oxide]",-16,-38
28,"CCCCCCCCCCCCCCCCS(=O)(=O)NCCOP1(=O)OCCO1 [Example 3, N-[2-(1,3,2-dioxaphospholan-2-yloxy)ethyl]-1-hexadecanesulfonamide P-oxide]",–,–
32,"CCCCCCCCCCCCNC(=O)NCCOP1(=O)OCCO1 [Example 1, N-[2-(1,3,2-Dioxaphospholan-2-yloxy)ethyl]-N'-dodecylurea P-oxide]",–,–
